How the values were obtained:
Assay type in all cases: binding
[1] = target: T1, kinases (KINOMEscan panel) (Homo sapiens, UniProt Q8N568); conditions: NEW KINOMEscan
T1 sequence (Q8N568 1-766): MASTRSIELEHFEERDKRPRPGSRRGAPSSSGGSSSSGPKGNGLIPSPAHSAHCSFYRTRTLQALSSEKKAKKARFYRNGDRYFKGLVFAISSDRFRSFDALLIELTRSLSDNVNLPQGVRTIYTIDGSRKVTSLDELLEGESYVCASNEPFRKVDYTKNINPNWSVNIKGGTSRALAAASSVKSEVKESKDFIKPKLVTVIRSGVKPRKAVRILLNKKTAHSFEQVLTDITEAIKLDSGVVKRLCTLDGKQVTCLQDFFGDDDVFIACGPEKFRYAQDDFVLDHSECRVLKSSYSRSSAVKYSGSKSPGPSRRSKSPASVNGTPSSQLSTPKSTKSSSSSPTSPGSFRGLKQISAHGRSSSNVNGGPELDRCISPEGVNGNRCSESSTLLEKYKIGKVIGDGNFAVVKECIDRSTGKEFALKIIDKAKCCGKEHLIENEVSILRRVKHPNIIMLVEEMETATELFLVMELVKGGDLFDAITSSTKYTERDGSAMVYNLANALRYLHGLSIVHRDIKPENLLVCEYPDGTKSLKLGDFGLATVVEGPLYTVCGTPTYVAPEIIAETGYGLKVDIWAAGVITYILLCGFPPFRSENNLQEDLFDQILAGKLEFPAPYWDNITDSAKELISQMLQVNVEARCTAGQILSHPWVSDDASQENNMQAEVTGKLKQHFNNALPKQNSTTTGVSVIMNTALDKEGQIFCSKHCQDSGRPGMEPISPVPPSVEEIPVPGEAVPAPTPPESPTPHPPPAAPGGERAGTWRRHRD

[2] = target: kinases (KINOMEscan panel) (Homo sapiens, UniProt P22607); conditions: FGFR3; NEW KINOMEscan
Sequence of kinases (KINOMEscan panel) (Homo sapiens, UniProt P22607) (P22607 23-806): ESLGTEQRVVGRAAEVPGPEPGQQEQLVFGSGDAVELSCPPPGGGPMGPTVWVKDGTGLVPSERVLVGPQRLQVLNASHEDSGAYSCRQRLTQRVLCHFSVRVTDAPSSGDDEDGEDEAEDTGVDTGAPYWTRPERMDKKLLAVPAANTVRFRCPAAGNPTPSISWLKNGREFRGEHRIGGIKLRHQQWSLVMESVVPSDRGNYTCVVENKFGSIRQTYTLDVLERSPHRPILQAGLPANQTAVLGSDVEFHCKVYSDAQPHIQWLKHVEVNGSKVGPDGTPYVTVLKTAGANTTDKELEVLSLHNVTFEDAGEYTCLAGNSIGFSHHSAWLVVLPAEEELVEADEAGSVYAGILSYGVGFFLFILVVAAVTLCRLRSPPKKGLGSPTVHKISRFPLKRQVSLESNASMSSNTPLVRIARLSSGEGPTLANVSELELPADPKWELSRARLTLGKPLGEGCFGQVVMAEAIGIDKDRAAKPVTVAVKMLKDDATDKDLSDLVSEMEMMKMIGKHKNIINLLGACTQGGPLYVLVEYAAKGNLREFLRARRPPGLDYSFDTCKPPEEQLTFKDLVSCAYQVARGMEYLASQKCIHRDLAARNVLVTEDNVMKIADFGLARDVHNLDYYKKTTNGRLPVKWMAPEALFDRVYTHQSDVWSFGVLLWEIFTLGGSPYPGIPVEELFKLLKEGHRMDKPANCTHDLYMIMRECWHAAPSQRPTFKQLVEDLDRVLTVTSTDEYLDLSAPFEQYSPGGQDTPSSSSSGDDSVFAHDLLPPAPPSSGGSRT

[3] = target: kinases (KINOMEscan panel) (Homo sapiens, UniProt P48729); conditions: CSNK1A1; NEW KINOMEscan
Sequence of kinases (KINOMEscan panel) (Homo sapiens, UniProt P48729) (P48729 whole entry): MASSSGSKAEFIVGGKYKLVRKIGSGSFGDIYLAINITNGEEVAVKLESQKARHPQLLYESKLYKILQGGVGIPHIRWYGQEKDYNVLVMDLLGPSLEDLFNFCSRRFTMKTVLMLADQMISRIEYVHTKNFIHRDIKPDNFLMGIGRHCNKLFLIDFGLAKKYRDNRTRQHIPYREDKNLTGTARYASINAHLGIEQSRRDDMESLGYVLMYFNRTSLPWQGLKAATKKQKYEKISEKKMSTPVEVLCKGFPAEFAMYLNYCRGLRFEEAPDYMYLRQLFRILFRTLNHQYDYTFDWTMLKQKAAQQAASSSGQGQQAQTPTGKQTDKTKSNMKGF

[4] = target: T2, kinases (KINOMEscan panel) (Homo sapiens, UniProt Q96D53); conditions: kinase COQ8B; NEW KINOMEscan
T2 sequence (Q96D53 1-544): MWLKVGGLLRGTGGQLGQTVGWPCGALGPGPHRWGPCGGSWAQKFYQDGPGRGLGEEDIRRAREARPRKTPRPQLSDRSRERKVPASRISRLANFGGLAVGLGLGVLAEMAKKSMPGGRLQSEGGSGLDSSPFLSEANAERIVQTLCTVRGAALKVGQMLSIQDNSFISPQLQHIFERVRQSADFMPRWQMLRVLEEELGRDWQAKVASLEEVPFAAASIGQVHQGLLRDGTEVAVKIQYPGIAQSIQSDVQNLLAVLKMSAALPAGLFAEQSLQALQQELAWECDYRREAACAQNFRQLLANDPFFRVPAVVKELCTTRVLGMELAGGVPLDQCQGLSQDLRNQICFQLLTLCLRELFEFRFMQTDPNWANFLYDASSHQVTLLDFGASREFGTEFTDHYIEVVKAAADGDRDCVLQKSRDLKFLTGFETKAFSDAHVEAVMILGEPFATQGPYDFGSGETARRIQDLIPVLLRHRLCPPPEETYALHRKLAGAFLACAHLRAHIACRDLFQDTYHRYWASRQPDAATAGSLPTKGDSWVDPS

[5] = target: kinases (KINOMEscan panel) (Homo sapiens, UniProt P68400); conditions: CSNK2A1; NEW KINOMEscan
Sequence of kinases (KINOMEscan panel) (Homo sapiens, UniProt P68400) (P68400 whole entry): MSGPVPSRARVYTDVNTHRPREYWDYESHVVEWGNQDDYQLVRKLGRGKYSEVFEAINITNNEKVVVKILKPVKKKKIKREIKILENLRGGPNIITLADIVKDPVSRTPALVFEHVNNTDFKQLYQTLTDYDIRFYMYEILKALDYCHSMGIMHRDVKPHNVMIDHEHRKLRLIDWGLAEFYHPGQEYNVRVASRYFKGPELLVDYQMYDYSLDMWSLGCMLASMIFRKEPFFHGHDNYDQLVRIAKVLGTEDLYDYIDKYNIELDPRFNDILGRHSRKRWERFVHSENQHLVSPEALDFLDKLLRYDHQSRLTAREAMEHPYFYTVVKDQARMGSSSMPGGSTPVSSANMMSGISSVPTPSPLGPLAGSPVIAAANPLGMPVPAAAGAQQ

[6] = target: kinases (KINOMEscan panel) (Homo sapiens, UniProt Q16584); conditions: kinase MAP3K11; NEW KINOMEscan
Sequence of kinases (KINOMEscan panel) (Homo sapiens, UniProt Q16584) (Q16584 whole entry): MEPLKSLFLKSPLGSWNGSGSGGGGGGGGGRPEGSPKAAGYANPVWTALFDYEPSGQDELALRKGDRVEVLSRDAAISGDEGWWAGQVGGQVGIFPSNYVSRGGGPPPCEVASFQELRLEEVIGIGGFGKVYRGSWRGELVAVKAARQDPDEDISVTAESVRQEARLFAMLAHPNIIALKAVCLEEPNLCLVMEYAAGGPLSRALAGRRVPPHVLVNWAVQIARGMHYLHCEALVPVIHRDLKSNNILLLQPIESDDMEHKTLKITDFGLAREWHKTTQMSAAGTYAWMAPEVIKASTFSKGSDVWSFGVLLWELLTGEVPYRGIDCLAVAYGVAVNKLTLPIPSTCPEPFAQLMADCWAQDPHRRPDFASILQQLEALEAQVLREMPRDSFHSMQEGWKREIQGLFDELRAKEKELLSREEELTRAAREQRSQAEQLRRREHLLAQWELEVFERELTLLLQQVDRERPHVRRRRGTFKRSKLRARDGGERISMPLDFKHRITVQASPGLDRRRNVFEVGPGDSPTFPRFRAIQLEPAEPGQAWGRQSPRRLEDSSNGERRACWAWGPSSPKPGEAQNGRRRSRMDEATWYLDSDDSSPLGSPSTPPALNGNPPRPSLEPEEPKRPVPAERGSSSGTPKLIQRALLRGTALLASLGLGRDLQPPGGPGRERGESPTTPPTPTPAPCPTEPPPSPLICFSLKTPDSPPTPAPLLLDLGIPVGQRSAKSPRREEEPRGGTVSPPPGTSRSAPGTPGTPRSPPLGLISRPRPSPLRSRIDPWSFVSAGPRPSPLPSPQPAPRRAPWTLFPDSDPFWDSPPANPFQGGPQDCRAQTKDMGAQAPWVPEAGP

[7] = target: T3, kinases (KINOMEscan panel) (Homo sapiens, UniProt Q13873); conditions: kinase BMPR2; NEW KINOMEscan
T3 sequence (Q13873 27-1038): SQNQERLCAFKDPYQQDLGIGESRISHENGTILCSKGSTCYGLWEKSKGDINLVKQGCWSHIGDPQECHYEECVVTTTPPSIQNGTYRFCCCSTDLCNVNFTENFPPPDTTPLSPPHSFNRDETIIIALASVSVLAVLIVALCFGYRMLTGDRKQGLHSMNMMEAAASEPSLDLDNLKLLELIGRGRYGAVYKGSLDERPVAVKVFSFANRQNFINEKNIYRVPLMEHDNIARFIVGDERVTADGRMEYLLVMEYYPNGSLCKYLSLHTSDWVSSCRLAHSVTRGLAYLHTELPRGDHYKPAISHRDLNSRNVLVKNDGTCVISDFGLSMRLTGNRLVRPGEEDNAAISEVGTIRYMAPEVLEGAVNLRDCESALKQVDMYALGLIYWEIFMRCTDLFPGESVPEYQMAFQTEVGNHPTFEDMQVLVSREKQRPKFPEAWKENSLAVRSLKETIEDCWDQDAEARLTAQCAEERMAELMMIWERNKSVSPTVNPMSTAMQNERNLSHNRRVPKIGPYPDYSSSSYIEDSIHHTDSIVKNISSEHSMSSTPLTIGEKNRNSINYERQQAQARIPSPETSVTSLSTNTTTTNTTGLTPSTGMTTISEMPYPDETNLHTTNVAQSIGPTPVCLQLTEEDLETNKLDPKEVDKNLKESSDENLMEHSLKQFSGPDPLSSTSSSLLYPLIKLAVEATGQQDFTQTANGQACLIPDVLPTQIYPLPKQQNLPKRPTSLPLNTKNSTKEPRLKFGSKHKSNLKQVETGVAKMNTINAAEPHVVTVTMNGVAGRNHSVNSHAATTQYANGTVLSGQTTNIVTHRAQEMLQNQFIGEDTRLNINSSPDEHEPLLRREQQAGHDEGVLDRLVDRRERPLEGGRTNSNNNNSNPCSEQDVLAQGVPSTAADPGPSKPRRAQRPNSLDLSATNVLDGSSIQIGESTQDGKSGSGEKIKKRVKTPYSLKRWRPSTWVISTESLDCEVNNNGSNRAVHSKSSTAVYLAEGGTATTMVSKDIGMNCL

[8] = target: kinases (KINOMEscan panel) (Homo sapiens, UniProt P00533, T790M); conditions: kinase EGFR(T790M); NEW KINOMEscan
Sequence of kinases (KINOMEscan panel) (Homo sapiens, UniProt P00533, T790M) (P00533 25-1210 T790M): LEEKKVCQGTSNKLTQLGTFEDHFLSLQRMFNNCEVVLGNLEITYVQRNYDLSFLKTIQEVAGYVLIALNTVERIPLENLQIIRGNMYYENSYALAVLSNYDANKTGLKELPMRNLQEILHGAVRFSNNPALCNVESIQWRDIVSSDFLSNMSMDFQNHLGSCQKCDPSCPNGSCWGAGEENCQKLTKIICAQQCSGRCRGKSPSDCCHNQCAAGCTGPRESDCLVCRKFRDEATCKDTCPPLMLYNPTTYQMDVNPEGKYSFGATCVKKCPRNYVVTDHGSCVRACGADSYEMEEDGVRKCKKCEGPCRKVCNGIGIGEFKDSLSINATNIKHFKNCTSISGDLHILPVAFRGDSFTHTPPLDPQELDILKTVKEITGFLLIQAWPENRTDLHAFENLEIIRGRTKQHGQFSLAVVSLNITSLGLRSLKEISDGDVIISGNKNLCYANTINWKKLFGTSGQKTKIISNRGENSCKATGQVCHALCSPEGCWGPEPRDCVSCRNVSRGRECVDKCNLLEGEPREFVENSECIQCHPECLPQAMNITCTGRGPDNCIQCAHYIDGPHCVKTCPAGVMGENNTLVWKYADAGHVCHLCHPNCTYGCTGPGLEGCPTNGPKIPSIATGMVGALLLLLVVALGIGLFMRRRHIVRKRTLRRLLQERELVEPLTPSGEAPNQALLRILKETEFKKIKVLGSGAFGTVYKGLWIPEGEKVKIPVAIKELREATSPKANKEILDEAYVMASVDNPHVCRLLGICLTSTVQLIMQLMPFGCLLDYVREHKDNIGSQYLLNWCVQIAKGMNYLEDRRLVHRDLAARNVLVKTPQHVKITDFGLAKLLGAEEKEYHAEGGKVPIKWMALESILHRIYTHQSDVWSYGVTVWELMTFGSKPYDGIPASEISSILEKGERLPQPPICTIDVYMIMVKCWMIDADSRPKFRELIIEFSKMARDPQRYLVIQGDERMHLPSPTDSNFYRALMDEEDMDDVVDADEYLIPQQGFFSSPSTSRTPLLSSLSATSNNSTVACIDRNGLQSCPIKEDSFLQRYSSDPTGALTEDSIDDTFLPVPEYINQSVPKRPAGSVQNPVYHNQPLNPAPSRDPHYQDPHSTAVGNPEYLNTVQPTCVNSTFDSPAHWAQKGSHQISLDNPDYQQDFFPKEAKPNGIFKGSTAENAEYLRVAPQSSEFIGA

[9] = target: kinases (KINOMEscan panel) (Homo sapiens, UniProt P37023); conditions: ACVRL1; NEW KINOMEscan
Sequence of kinases (KINOMEscan panel) (Homo sapiens, UniProt P37023) (P37023 22-503): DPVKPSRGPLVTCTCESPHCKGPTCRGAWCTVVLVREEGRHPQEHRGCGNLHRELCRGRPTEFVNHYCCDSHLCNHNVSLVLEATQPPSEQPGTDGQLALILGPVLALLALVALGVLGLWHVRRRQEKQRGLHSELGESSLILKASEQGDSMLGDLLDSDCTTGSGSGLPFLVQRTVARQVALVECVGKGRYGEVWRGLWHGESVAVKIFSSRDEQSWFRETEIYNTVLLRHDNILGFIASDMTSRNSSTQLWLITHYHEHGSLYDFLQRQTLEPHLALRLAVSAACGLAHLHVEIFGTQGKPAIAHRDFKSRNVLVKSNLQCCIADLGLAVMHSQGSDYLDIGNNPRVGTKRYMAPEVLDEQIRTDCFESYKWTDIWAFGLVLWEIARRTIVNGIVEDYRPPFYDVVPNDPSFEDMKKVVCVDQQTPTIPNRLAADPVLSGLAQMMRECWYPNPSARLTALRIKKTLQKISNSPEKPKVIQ

[10] = target: kinases (KINOMEscan panel) (Homo sapiens, UniProt P06241); conditions: kinase FYN; NEW KINOMEscan
Sequence of kinases (KINOMEscan panel) (Homo sapiens, UniProt P06241) (P06241 whole entry): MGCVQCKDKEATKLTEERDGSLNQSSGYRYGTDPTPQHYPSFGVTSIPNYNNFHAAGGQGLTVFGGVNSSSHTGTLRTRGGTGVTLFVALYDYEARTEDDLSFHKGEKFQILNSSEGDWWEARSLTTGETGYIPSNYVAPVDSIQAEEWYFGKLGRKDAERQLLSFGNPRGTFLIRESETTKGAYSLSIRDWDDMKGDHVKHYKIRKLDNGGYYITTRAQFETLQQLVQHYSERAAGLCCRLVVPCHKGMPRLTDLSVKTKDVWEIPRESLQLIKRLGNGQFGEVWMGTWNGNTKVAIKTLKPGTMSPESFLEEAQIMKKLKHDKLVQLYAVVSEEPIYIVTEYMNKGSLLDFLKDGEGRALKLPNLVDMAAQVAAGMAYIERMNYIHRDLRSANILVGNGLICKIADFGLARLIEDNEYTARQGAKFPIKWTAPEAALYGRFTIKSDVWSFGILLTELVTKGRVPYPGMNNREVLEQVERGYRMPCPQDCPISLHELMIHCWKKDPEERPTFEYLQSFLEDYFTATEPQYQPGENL

Structure (SMILES)	KINOMEscan DCLK2 [1]	KINOMEscan FGFR3 [2]	KINOMEscan CSNK1A1 [3]	KINOMEscan COQ8B [4]	KINOMEscan CSNK2A1 [5]	KINOMEscan MAP3K11 [6]	KINOMEscan BMPR2 [7]	KINOMEscan EGFR(T790M) [8]	KINOMEscan ACVRL1 [9]	KINOMEscan FYN [10]
Cc1cccc(-c2nc(Nc3ccc4nn(C)cc4c3)c3ccccc3n2)n1 [NK167]	11	0	7	0	0	0	0	0	4	0
Cc1cccc(-c2nc(N(C)c3ccc4ncsc4c3)c3ccccc3n2)n1 [NK-161]	25	1	10	0	19	0	18	0	9	0

Reference: article PMC9851200, “Multiparameter phenotypic screening for endogenous TFEB and TFE3 translocation identifies novel chemical series modulating lysosome function” (Autophagy, 2022)
